Measurements from PubChem BioAssay (NCI).
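Interpolation was linear, between the two tested concentrations surrounding the appropriate level; five concentrations were tested over 48 hours in 96-well plates. TGI denotes the concentration required for complete inhibition of growth.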 Where a SMILES comes first, the peptide text is derived from it. [ ]: non-standard residue; d: D form. The star is where a group is joined. Bn2Val = CC(C)[C@@H](C(=O)*)N(Cc1ccccc1)Cc1ccccc1; NH(4-F-benzyl) = Fc1ccc(CN*)cc1; NMeV = CN[C@H](C(=O)O)C(C)C; dNMeA = CN[C@H](C)C(=O)O

Key:
Assay in all cases: NCI anticancer screen, dose series, 48 h
UACC-257 melanoma = tested on: UACC-257 melanoma
SNB-75 CNS = tested on: SNB-75 CNS
CAKI-1 renal = tested on: CAKI-1 renal
DU-145 prostate = tested on: DU-145 prostate
MDA-MB-231 breast = tested on: MDA-MB-231 breast
OVCAR-4 ovarian = tested on: OVCAR-4 ovarian
ACHN renal = tested on: ACHN renal
NCI/ADR-RES ovarian = tested on: NCI/ADR-RES ovarian
M14 melanoma = tested on: M14 melanoma
K-562 leukemia = tested on: K-562 leukemia
OVCAR-8 ovarian = tested on: OVCAR-8 ovarian
SK-OV-3 ovarian = tested on: SK-OV-3 ovarian
SF-268 CNS = tested on: SF-268 CNS
SW-620 colon = tested on: SW-620 colon
LOX IMVI melanoma = tested on: LOX IMVI melanoma
MALME-3M melanoma = tested on: MALME-3M melanoma
SK-MEL-5 melanoma = tested on: SK-MEL-5 melanoma
HCC-2998 colon = tested on: HCC-2998 colon
MOLT-4 leukemia = tested on: MOLT-4 leukemia
SK-MEL-28 melanoma = tested on: SK-MEL-28 melanoma
786-0 renal = tested on: 786-0 renal
CCRF-CEM leukemia = tested on: CCRF-CEM leukemia
HS 578T breast = tested on: HS 578T breast
T-47D breast = tested on: T-47D breast
BT-549 breast = tested on: BT-549 breast
HOP-62 NSCLC = tested on: HOP-62 NSCLC
OVCAR-3 ovarian = tested on: OVCAR-3 ovarian
PC-3 prostate = tested on: PC-3 prostate
SF-295 CNS = tested on: SF-295 CNS
MDA-N = tested on: MDA-N
KM12 colon = tested on: KM12 colon
HL-60(TB) leukemia = tested on: HL-60(TB) leukemia
SNB-19 CNS = tested on: SNB-19 CNS
UACC-62 melanoma = tested on: UACC-62 melanoma
NCI-H23 lung = tested on: NCI-H23 lung
MDA-MB-435 = tested on: MDA-MB-435
MCF7 breast = tested on: MCF7 breast
SF-539 CNS = tested on: SF-539 CNS
HCT-15 colon = tested on: HCT-15 colon
RXF 393 renal = tested on: RXF 393 renal
A549 NSCLC = tested on: A549 NSCLC
UO-31 renal = tested on: UO-31 renal
EKVX NSCLC = tested on: EKVX NSCLC
HT29 colon = tested on: HT29 colon
SK-MEL-2 melanoma = tested on: SK-MEL-2 melanoma
IGROV1 ovarian = tested on: IGROV1 ovarian
SN12C renal = tested on: SN12C renal
TK-10 renal = tested on: TK-10 renal
HCT-116 colon = tested on: HCT-116 colon
HOP-92 NSCLC = tested on: HOP-92 NSCLC
NCI-H522 lung = tested on: NCI-H522 lung
NCI-H226 lung = tested on: NCI-H226 lung
RPMI-8226 leukemia = tested on: RPMI-8226 leukemia
COLO 205 colon = tested on: COLO 205 colon
NCI-H460 lung = tested on: NCI-H460 lung
A498 renal = tested on: A498 renal
U251 CNS = tested on: U251 CNS
SR leukemia = tested on: SR leukemia
OVCAR-5 ovarian = tested on: OVCAR-5 ovarian

ClCc1nn(-c2ccccc2)c(CCl)c1CCl
TGI (UACC-257 melanoma): 25 µM
TGI (SNB-75 CNS): 11.4 µM
TGI (CAKI-1 renal): 20.6 µM
TGI (DU-145 prostate): 16.6 µM
TGI (MDA-MB-231 breast): 12.1 µM
TGI (OVCAR-4 ovarian): 7.61 µM
TGI (ACHN renal): 7.62 µM
TGI (NCI/ADR-RES ovarian): > 100 µM
TGI (M14 melanoma): 10.3 µM
TGI (K-562 leukemia): 6.34 µM
TGI (OVCAR-8 ovarian): 6.17 µM
TGI (SK-OV-3 ovarian): 23.3 µM
TGI (SF-268 CNS): 17.4 µM
TGI (SW-620 colon): 11.4 µM
TGI (LOX IMVI melanoma): 4.29 µM
TGI (MALME-3M melanoma): 9.88 µM
TGI (SK-MEL-5 melanoma): 8.43 µM
TGI (HCC-2998 colon): 24.7 µM
TGI (MOLT-4 leukemia): 6.76 µM
TGI (SK-MEL-28 melanoma): 12.4 µM
TGI (786-0 renal): 8.77 µM
TGI (CCRF-CEM leukemia): 6.02 µM
TGI (HS 578T breast): 58.3 µM
TGI (T-47D breast): 16.4 µM
TGI (BT-549 breast): 18.3 µM
TGI (HOP-62 NSCLC): 33.8 µM
TGI (OVCAR-3 ovarian): 11 µM
TGI (PC-3 prostate): 18.4 µM
TGI (SF-295 CNS): 26.5 µM
TGI (MDA-N): 8.88 µM
TGI (KM12 colon): 11.9 µM
TGI (HL-60(TB) leukemia): 6.78 µM
TGI (SNB-19 CNS): 19.9 µM
TGI (UACC-62 melanoma): 14.4 µM
TGI (NCI-H23 lung): 14.3 µM
TGI (MDA-MB-435): 6.6 µM
TGI (MCF7 breast): 16 µM
TGI (SF-539 CNS): 6.34 µM
TGI (HCT-15 colon): 9.06 µM
TGI (RXF 393 renal): 15.3 µM
TGI (A549 NSCLC): 24.5 µM
TGI (UO-31 renal): 11.5 µM
TGI (EKVX NSCLC): 8.97 µM
TGI (HT29 colon): 9.9 µM
TGI (SK-MEL-2 melanoma): 15.5 µM
TGI (IGROV1 ovarian): 18.2 µM
TGI (SN12C renal): 11.1 µM
TGI (TK-10 renal): 21.3 µM
TGI (HCT-116 colon): 7.54 µM
TGI (HOP-92 NSCLC): 9.85 µM
TGI (NCI-H522 lung): 10.2 µM
TGI (NCI-H226 lung): 13.9 µM
TGI (RPMI-8226 leukemia): 7.18 µM
TGI (COLO 205 colon): 8.95 µM
TGI (NCI-H460 lung): 12.5 µM
TGI (A498 renal): 24.5 µM
TGI (U251 CNS): 6.05 µM
TGI (SR leukemia): 4.41 µM
TGI (OVCAR-5 ovarian): 15.2 µM

NC(C(=O)O)c1cc(=O)[nH]o1 (configuration not stated)
TGI (UACC-257 melanoma): > 100 µM
TGI (SNB-75 CNS): > 100 µM
TGI (CAKI-1 renal): > 100 µM
TGI (DU-145 prostate): > 100 µM
TGI (MDA-MB-231 breast): > 100 µM
TGI (OVCAR-4 ovarian): > 100 µM
TGI (ACHN renal): > 100 µM
TGI (NCI/ADR-RES ovarian): > 100 µM
TGI (M14 melanoma): > 100 µM
TGI (K-562 leukemia): > 100 µM
TGI (OVCAR-8 ovarian): > 100 µM
TGI (SK-OV-3 ovarian): > 100 µM
TGI (SF-268 CNS): > 100 µM
TGI (SW-620 colon): > 100 µM
TGI (LOX IMVI melanoma): > 100 µM
TGI (MALME-3M melanoma): > 100 µM
TGI (SK-MEL-5 melanoma): > 100 µM
TGI (HCC-2998 colon): > 100 µM
TGI (MOLT-4 leukemia): > 100 µM
TGI (SK-MEL-28 melanoma): > 100 µM
TGI (786-0 renal): > 100 µM
TGI (CCRF-CEM leukemia): > 100 µM
TGI (HS 578T breast): > 100 µM
TGI (T-47D breast): > 100 µM
TGI (BT-549 breast): > 69.9 µM
TGI (HOP-62 NSCLC): > 100 µM
TGI (OVCAR-3 ovarian): > 100 µM
TGI (PC-3 prostate): > 100 µM
TGI (SF-295 CNS): > 100 µM
TGI (MDA-N): > 100 µM
TGI (KM12 colon): > 100 µM
TGI (HL-60(TB) leukemia): > 100 µM
TGI (SNB-19 CNS): > 100 µM
TGI (UACC-62 melanoma): > 100 µM
TGI (NCI-H23 lung): > 100 µM
TGI (MDA-MB-435): > 100 µM
TGI (MCF7 breast): > 100 µM
TGI (SF-539 CNS): > 100 µM
TGI (HCT-15 colon): > 100 µM
TGI (RXF 393 renal): > 100 µM
TGI (A549 NSCLC): > 100 µM
TGI (UO-31 renal): > 100 µM
TGI (EKVX NSCLC): > 100 µM
TGI (HT29 colon): > 100 µM
TGI (SK-MEL-2 melanoma): > 100 µM
TGI (IGROV1 ovarian): > 100 µM
TGI (SN12C renal): > 100 µM
TGI (TK-10 renal): > 100 µM
TGI (HCT-116 colon): > 100 µM
TGI (HOP-92 NSCLC): > 100 µM
TGI (NCI-H522 lung): > 100 µM
TGI (NCI-H226 lung): > 100 µM
TGI (RPMI-8226 leukemia): > 100 µM
TGI (COLO 205 colon): > 100 µM
TGI (NCI-H460 lung): > 100 µM
TGI (A498 renal): > 100 µM
TGI (U251 CNS): > 100 µM
TGI (SR leukemia): > 100 µM
TGI (OVCAR-5 ovarian): > 100 µM

CC(C)[C@H](NC(=O)[C@H](C(C)C)N(Cc1ccccc1)Cc1ccccc1)C(=O)N(C)[C@H](C(=O)N1CCC[C@H]1C(=O)N(C)[C@H](C)C(=O)NCc1ccc(F)cc1)C(C)C (Bn2Val-V[NMeV]P[dNMeA]-{NH(4-F-benzyl)})
TGI (UACC-257 melanoma): > 47.4 µM
TGI (SNB-75 CNS): > 37.5 µM
TGI (CAKI-1 renal): > 63.1 µM
TGI (DU-145 prostate): > 100 µM
TGI (MDA-MB-231 breast): 11.2 µM
TGI (OVCAR-4 ovarian): > 47.4 µM
TGI (ACHN renal): 20.6 µM
TGI (NCI/ADR-RES ovarian): > 100 µM
TGI (M14 melanoma): > 20.3 µM
TGI (K-562 leukemia): > 100 µM
TGI (OVCAR-8 ovarian): > 51.5 µM
TGI (SK-OV-3 ovarian): > 100 µM
TGI (SF-268 CNS): 10 µM
TGI (SW-620 colon): > 100 µM
TGI (LOX IMVI melanoma): 3.52 µM
TGI (MALME-3M melanoma): 9.23 µM
TGI (SK-MEL-5 melanoma): 4.7 µM
TGI (HCC-2998 colon): 12.8 µM
TGI (MOLT-4 leukemia): > 20.8 µM
TGI (SK-MEL-28 melanoma): > 61.7 µM
TGI (786-0 renal): 36.8 µM
TGI (CCRF-CEM leukemia): > 100 µM
TGI (HS 578T breast): 24.7 µM
TGI (T-47D breast): > 83.9 µM
TGI (BT-549 breast): 19.1 µM
TGI (HOP-62 NSCLC): 39.4 µM
TGI (OVCAR-3 ovarian): 9.92 µM
TGI (PC-3 prostate): > 25.6 µM
TGI (SF-295 CNS): 13.6 µM
TGI (MDA-N): 27.9 µM
TGI (KM12 colon): > 100 µM
TGI (HL-60(TB) leukemia): 5.52 µM
TGI (SNB-19 CNS): > 65.6 µM
TGI (UACC-62 melanoma): 9.66 µM
TGI (NCI-H23 lung): 32.5 µM
TGI (MDA-MB-435): > 31.9 µM
TGI (MCF7 breast): 7.32 µM
TGI (SF-539 CNS): 7.99 µM
TGI (HCT-15 colon): > 80.9 µM
TGI (RXF 393 renal): 7.9 µM
TGI (A549 NSCLC): > 25.2 µM
TGI (UO-31 renal): 6.42 µM
TGI (EKVX NSCLC): 18.4 µM
TGI (HT29 colon): 4.18 µM
TGI (SK-MEL-2 melanoma): 4.03 µM
TGI (IGROV1 ovarian): 9.7 µM
TGI (SN12C renal): 8.76 µM
TGI (TK-10 renal): > 61.2 µM
TGI (HCT-116 colon): 8.82 µM
TGI (HOP-92 NSCLC): 10.3 µM
TGI (NCI-H522 lung): 7.61 µM
TGI (NCI-H226 lung): 6.23 µM
TGI (RPMI-8226 leukemia): > 100 µM
TGI (COLO 205 colon): 3.28 µM
TGI (NCI-H460 lung): > 38.7 µM
TGI (A498 renal): 6.71 µM
TGI (U251 CNS): > 25.6 µM
TGI (SR leukemia): 4.65 µM
TGI (OVCAR-5 ovarian): 15.4 µM
